Assay results published in US20240101570A1 (AMGEN INC., priority 2020, published 2024).

What follows are molecules tested on HCT116 WT cells (assay: HCT116 WT cell proliferation / viability (CellTiter-Glo, 6 days)). Details: Homo sapiens, HCT-116, 144 h, HCT116 WT cells, 6 days, CellTiter-Glo; read-out: HCT-116 WT IC50.
Format: cell-based
Experimental: (§1) HCT116 MTAP null and WT cells were seeded in 96-well tissue culture plates in RPMI 1640 media+10% fetal bovine serum. Plates were incubated overnight at 37° C. and 5% CO2. Cells were then treated with an 8- or 9-point serial dilution of compound, using a top concentration of 1, or 10 μM, 1:3 serial dilution steps and, a DMSO-only control. Cells were incubated in the presence of drug for 6 days. Effects on cell viability were measured with the CellTiter-Glo® Luminescent Cell Viability Assay (Promega) per manufacturer's recommendation. Assay plates were read on an EnVision™ Multilabel Reader using the Ultra-Sensitive luminescence module. IC50 values were calculated with GraphPad Prism v 5.01 using symmetrical sigmoidal dose-response least squares fit with Hill slope fixed to −1 and top constrain to 100% or GeneData Screener using a 4-parameter logistic model to fit dose response curves.
(§2) Alternatively, compounds could be assayed with a 384 well plate format:
(§3) Compounds were pre-spotted into 384 well plates with a 22-point serial dilution of compound, using a top concentration of 10 or 50 μM, 1:2 serial dilution steps and, a DMSO-only control. HCT116 MTAP null and WT cells were then seeded as above and after 6 days effects on cell viability were measured with the CellTiter-Glo® Luminescent Cell Viability Assay (Promega). Assay plates were read as above and IC50 values were calculated with GeneData Screener using a 4-parameter logistic model to fit dose response curves. The reported IC50 represents the value where the curve transits 50% of control.

Structure (SMILES) | IC50
COCC(C)N(Cc1ccc(C(F)(F)F)nn1)C(=O)c1ccc2nc(N)c3c(c2c1)CO[C@@H]3C (mixture of isomers) [Example 304, (3R)-4-amino-N-((2R)-1-methoxy-2-propanyl)-3-methyl-N-((6-(trifluoromethyl)-3-pyridazinyl)methyl)-1,3-dihydrofuro[3,4-c]quinoline-8-carboxamide and (3R)-4-amino-N-((2S)-1-methoxy-2-propanyl)-3-methyl-N-((6-(trifluoromethyl)-3-pyridazinyl)methyl)-1,3-dihydrofuro[3,4-c]quinoline-8-carboxamide] | 0.352 µM

Each molecule was assayed on HCT116 MTAP null cells (assay: HCT116 MTAP null cell proliferation / viability (CellTiter-Glo, 6 days)). Details: HCT116-MTAP null, 144 h, HCT116 MTAP null cells, 6 days, CellTiter-Glo; read-out: HCT-116 MTAP null IC50.
Format: cell-based
Experimental: as §1, §2, §3

Structure (SMILES) | IC50
COCC(C)N(Cc1ccc(C(F)(F)F)nn1)C(=O)c1ccc2nc(N)c3c(c2c1)CO[C@@H]3C (mixture of isomers) [Example 304, (3R)-4-amino-N-((2R)-1-methoxy-2-propanyl)-3-methyl-N-((6-(trifluoromethyl)-3-pyridazinyl)methyl)-1,3-dihydrofuro[3,4-c]quinoline-8-carboxamide and (3R)-4-amino-N-((2S)-1-methoxy-2-propanyl)-3-methyl-N-((6-(trifluoromethyl)-3-pyridazinyl)methyl)-1,3-dihydrofuro[3,4-c]quinoline-8-carboxamide] | 0.026 µM
CC(C)N(Cc1ccc(Br)nn1)C(=O)c1ccc2nc(N)c3c(c2c1)COC3 [Example 335, 4-amino-N-((6-bromo-3-pyridazinyl)methyl)-N-(2-propanyl)-1,3-dihydrofuro[3,4-c]quinoline-8-carboxamide] | 0.361 µM
CC(C)(C)CN(Cc1ccc(C(F)(F)F)cn1)C(=O)c1ccc2nc(N)c3c(c2c1)COC3 [Example 342, 4-amino-N-(2,2-dimethylpropyl)-N-((5-(trifluoromethyl)-2-pyridinyl)methyl)-1,3-dihydrofuro[3,4-c]quinoline-8-carboxamide] | 1.31 µM
CC1(N(Cc2ccc(C(F)(F)F)cn2)C(=O)c2cc3c4c(c(N)nc3cn2)COC4)CC1 [Example 699, 4-amino-N-(1-methylcyclopropyl)-N-((5-(trifluoromethyl)-2-pyridinyl)methyl)-1,3-dihydrofuro[3,4-c][1,7]naphthyridine-8-carboxamide] | 0.249 µM
CC1OCc2c1c(N)nc1ccc(C(=O)N(Cc3ccc(C(F)(F)F)cn3)C(C)C3CCOCC3)cc21 (stereo not drawn) [Example 891, 4-amino-3-methyl-N-(1-(tetrahydro-2H-pyran-4-yl)ethyl)-N-((5-(trifluoromethyl)pyridin-2-yl)methyl)-1,3-dihydrofuro[3,4-c]quinoline-8-carboxamide] | 0.04 µM
CC1OCc2c1c(N)nc1ccc(C(=O)N(Cc3ccc(C(F)(F)F)cn3)C[C@H]3CC[C@H](O)CC3)cc21 (stereo partly drawn) [Example 893, 4-amino-N-(((1r,4r)-4-hydroxycyclohexyl)methyl)-3-methyl-N-((5-(trifluoromethyl)pyridin-2-yl)methyl)-1,3-dihydrofuro[3,4-c]quinoline-8-carboxamide] | 0.041 µM
CC1OCc2c1c(N)nc1ccc(C(=O)N(Cc3ccc(C#N)cn3)C[C@H]3CC[C@H](O)CC3)cc21 (stereo partly drawn) [Example 894, 4-amino-N-((5-cyanopyridin-2-yl)methyl)-N-(((1r,4r)-4-hydroxycyclohexyl)methyl)-3-methyl-1,3-dihydrofuro[3,4-c]quinoline-8-carboxamide] | 0.18 µM
CC1OCc2c1c(N)nc1ccc(C(=O)N(Cc3ccc(C(F)(F)F)cn3)C3CC3N)cc21 (stereo not drawn) [Example 906, 4-amino-N-(2-aminocyclopropyl)-3-methyl-N-((5-(trifluoromethyl)pyridin-2-yl)methyl)-1,3-dihydrofuro[3,4-c]quinoline-8-carboxamide] | 0.79 µM
CC1OCc2c1c(N)nc1ccc(C(=O)N(CC3=CCCOC3)Cc3ccc(C#N)cn3)cc21 (stereo not drawn) [Example 912, 4-amino-N-((5-cyanopyridin-2-yl)methyl)-N-((5,6-dihydro-2H-pyran-3-yl)methyl)-3-methyl-1,3-dihydrofuro[3,4-c]quinoline-8-carboxamide] | 0.14 µM
CC1OCc2c1c(N)nc1ccc(C(=O)N(Cc3ccc(C#N)cn3)Cc3cnc(N)s3)cc21 (stereo not drawn) [Example 914, 4-amino-N-((2-aminothiazol-5-yl)methyl)-N-((5-cyanopyridin-2-yl)methyl)-3-methyl-1,3-dihydrofuro[3,4-c]quinoline-8-carboxamide] | 0.2 µM
CC(C)CN(Cc1ccc(C(F)(F)F)cn1)C(=O)c1ccc2nc(N)c3c(c2c1)COC3C (stereo not drawn) [Example 919, 4-amino-N-isobutyl-3-methyl-N-((5-(trifluoromethyl)pyridin-2-yl)methyl)-1,3-dihydrofuro[3,4-c]quinoline-8-carboxamide] | 0.025 µM
CC1OCc2c1c(N)nc1ccc(C(=O)N(Cc3ccc(C(F)(F)F)cn3)C(C)C(C)O)cc21 (stereo not drawn) [Example 920, 4-amino-N-(3-hydroxybutan-2-yl)-3-methyl-N-((5-(trifluoromethyl)pyridin-2-yl)methyl)-1,3-dihydrofuro[3,4-c]quinoline-8-carboxamide] | 0.076 µM
CC1OCc2c1c(N)nc1ccc(C(=O)N(Cc3ccc(C(F)(F)F)cn3)C3CCCC(O)C3)cc21 (stereo not drawn) [Example 921, 4-amino-N-(3-hydroxycyclohexyl)-3-methyl-N-((5-(trifluoromethyl)pyridin-2-yl)methyl)-1,3-dihydrofuro[3,4-c]quinoline-8-carboxamide] | 0.093 µM
CC1OCc2c1c(N)nc1ccc(C(=O)N(CCC3CC(O)C3)Cc3ccc(C(F)(F)F)cn3)cc21 (stereo not drawn) [Example 922, 4-amino-N-(2-(3-hydroxycyclobutyl)ethyl)-3-methyl-N-((5-(trifluoromethyl)pyridin-2-yl)methyl)-1,3-dihydrofuro[3,4-c]quinoline-8-carboxamide] | 0.048 µM
CC(O)CN(Cc1ccc(C(F)(F)F)cn1)C(=O)c1ccc2nc(N)c3c(c2c1)COC3C (stereo not drawn) [Example 923, 4-amino-N-(2-hydroxypropyl)-3-methyl-N-((5-(trifluoromethyl)pyridin-2-yl)methyl)-1,3-dihydrofuro[3,4-c]quinoline-8-carboxamide] | 0.056 µM
CC(CO)CN(Cc1ccc(C(F)(F)F)cn1)C(=O)c1ccc2nc(N)c3c(c2c1)COC3C (stereo not drawn) [Example 924, 4-amino-N-(3-hydroxy-2-methylpropyl)-3-methyl-N-((5-(trifluoromethyl)pyridin-2-yl)methyl)-1,3-dihydrofuro[3,4-c]quinoline-8-carboxamide] | 0.043 µM
CC1OCc2c1c(N)nc1ccc(C(=O)N(Cc3ccc(C(F)(F)F)cn3)CC(O)C(F)(F)F)cc21 (stereo not drawn) [Example 925, 4-amino-3-methyl-N-(3,3,3-trifluoro-2-hydroxypropyl)-N-((5-(trifluoromethyl)pyridin-2-yl)methyl)-1,3-dihydrofuro[3,4-c]quinoline-8-carboxamide] | 0.035 µM
CC1OCc2c1c(N)nc1ccc(C(=O)N(Cc3ccc(C(F)(F)F)cn3)Cc3ncn(C)n3)cc21 (stereo not drawn) [Example 926, 4-amino-3-methyl-N-((1-methyl-1H-1,2,4-triazol-3-yl)methyl)-N-((5-(trifluoromethyl)pyridin-2-yl)methyl)-1,3-dihydrofuro[3,4-c]quinoline-8-carboxamide] | 0.03 µM
CC1OCc2c1c(N)nc1ccc(C(=O)N(Cc3ccc(C(F)(F)F)cn3)CC3CCOC3)cc21 (stereo not drawn) [Example 927, 4-amino-3-methyl-N-((tetrahydrofuran-3-yl)methyl)-N-((5-(trifluoromethyl)pyridin-2-yl)methyl)-1,3-dihydrofuro[3,4-c]quinoline-8-carboxamide] | 0.069 µM
CC(C#N)CN(Cc1ccc(C(F)(F)F)cn1)C(=O)c1ccc2nc(N)c3c(c2c1)COC3C (stereo not drawn) [Example 928, 4-amino-N-(2-cyanopropyl)-3-methyl-N-((5-(trifluoromethyl)pyridin-2-yl)methyl)-1,3-dihydrofuro[3,4-c]quinoline-8-carboxamide] | 0.039 µM
